Test results from ChEMBL document CHEMBL3885861, “Open TG-GATES”.

Species: Rattus norvegicus
Assay: Open TG-GATES - Regimen: Single
Format: toxicity, organism-based, Sprague-Dawley
Parameters: regimen Single, gender Male, age 6 weeks
Settings: in vivo, po, 300 mg/kg, route gavage, dose level Low; for KIDNEY_L / KIDNEY_R / KIDNEY_TOTAL: tissue Kidney; for LIVER: tissue Liver

CCOc1ccc(NC(C)=O)cc1 [PHENACETIN]
gamma-GTP (6 h, tissue Plasma): 1 IU/L | TERMINAL_BW (9 h): 204.1 g | APTT (9 h, tissue Blood): 17.8 s | Bas (9 h, tissue Blood): 0% | Eos (9 h, tissue Blood): 0.6% | Fbg (9 h, tissue Blood): 313.2 mg/dL | Hb (9 h, tissue Blood): 14.4 g/dL | Ht (9 h, tissue Blood): 42.3% | Lym (9 h, tissue Blood): 72.2% | MCH (9 h, tissue Blood): 21 pg | MCV (9 h, tissue Blood): 61.6 fL | Mono (9 h, tissue Blood): 4.2% | Neu (9 h, tissue Blood): 22.2% | PT (9 h, tissue Blood): 13.9 s | Plat (9 h, tissue Blood): 119.6 x10_4/uL | RBC (9 h, tissue Blood): 686.6 x10_4/ul | Ret (9 h, tissue Blood): 8.4% | WBC (9 h, tissue Blood): 60.7 x10_2/uL | KIDNEY_L (9 h): 0.9 g | KIDNEY_R (9 h): 0.9 g | KIDNEY_TOTAL (9 h): 1.8 g | LIVER (9 h): 8.5 g | ALP (9 h, tissue Plasma): 1326.6 IU/L | ALT (9 h, tissue Plasma): 33.4 IU/L | AST (9 h, tissue Plasma): 65.4 IU/L | BUN (9 h, tissue Plasma): 11.6 mg/dL | CRE (9 h, tissue Plasma): 0.2 mg/dL | Ca (9 h, tissue Plasma): 11.1 mg/dL | Cl (9 h, tissue Plasma): 99 meq/L | DBIL (9 h, tissue Plasma): 0.008 mg/dL | GLC (9 h, tissue Plasma): 210.8 mg/dL | IP (9 h, tissue Plasma): 8.8 mg/dL | K (9 h, tissue Plasma): 4 meq/L | LDH (9 h, tissue Plasma): 93 IU/L | Na (9 h, tissue Plasma): 139 meq/L | PL (9 h, tissue Plasma): 163.2 mg/dL | RALB (9 h, tissue Plasma): 2.7 g/dL | TBIL (9 h, tissue Plasma): 0.062 mg/dL | TC (9 h, tissue Plasma): 94.8 mg/dL | TG (9 h, tissue Plasma): 50.6 mg/dL | TP (9 h, tissue Plasma): 5.8 g/dL | gamma-GTP (9 h, tissue Plasma): 1.4 IU/L | TERMINAL_BW (24 h): 210.4 g | APTT (24 h, tissue Blood): 16.7 s | Bas (24 h, tissue Blood): 0% | Eos (24 h, tissue Blood): 1% | Fbg (24 h, tissue Blood): 297.4 mg/dL | Hb (24 h, tissue Blood): 13.9 g/dL | Ht (24 h, tissue Blood): 41.5% | Lym (24 h, tissue Blood): 77.4% | MCH (24 h, tissue Blood): 20.7 pg | MCHC (24 h, tissue Blood): 33.4% | MCV (24 h, tissue Blood): 62.2 fL | Mono (24 h, tissue Blood): 2.6% | Neu (24 h, tissue Blood): 18.6% | PT (24 h, tissue Blood): 14.1 s | Plat (24 h, tissue Blood): 126.5 x10_4/uL | RBC (24 h, tissue Blood): 668.8 x10_4/ul | Ret (24 h, tissue Blood): 7.5% | WBC (24 h, tissue Blood): 86.4 x10_2/uL | KIDNEY_L (24 h): 1 g | KIDNEY_R (24 h): 1 g | KIDNEY_TOTAL (24 h): 1.9 g | LIVER (24 h): 9.2 g | ALP (24 h, tissue Plasma): 1966 IU/L | ALT (24 h, tissue Plasma): 44.4 IU/L | AST (24 h, tissue Plasma): 83 IU/L | BUN (24 h, tissue Plasma): 14.4 mg/dL | CRE (24 h, tissue Plasma): 0.2 mg/dL | Ca (24 h, tissue Plasma): 11.1 mg/dL | Cl (24 h, tissue Plasma): 105 meq/L | DBIL (24 h, tissue Plasma): 0.01 mg/dL | GLC (24 h, tissue Plasma): 168.6 mg/dL | IP (24 h, tissue Plasma): 7.7 mg/dL | K (24 h, tissue Plasma): 4.4 meq/L | LDH (24 h, tissue Plasma): 149.6 IU/L | Na (24 h, tissue Plasma): 144 meq/L | PL (24 h, tissue Plasma): 166 mg/dL | RALB (24 h, tissue Plasma): 2.6 g/dL | TBIL (24 h, tissue Plasma): 0.05 mg/dL | TC (24 h, tissue Plasma): 87.8 mg/dL | TG (24 h, tissue Plasma): 84.4 mg/dL
